Reference: US7550497B2, “Phosphoramide derivatives” (Palau Pharma, S.A., priority 2002, dated 2009)

Columns and labels:
[1] = tested on: carrageenan-induced paw edema; experiment: Rat carrageenan-induced paw edema assay; type: in vivo; details: male Sprague Dawley rats, 3 mg/kg i.v., 10 min before carrageenan, paw volume 1-4 h
Method: Test 1.—Rat Carrageenan-Induced Paw Edema Assay
Male Sprague Dawley rats (150-175 g) are used. The animals are fasted during 18 hours prior to the experiment and kept with water ad libitum, and are randomly distributed into the different groups of treatment. Inflammation is induced by injecting 0.1 mL of 1% λ-carrageenan solution (Sigma) to the animals' right hindpaw, and the inflammatory response (increase in paw volume) is measured with a plethysmometer (UGO BASILE). Paw volumes are measured just before the administration of test compounds and at 1, 2, 3 and 4 hours after the injection of carrageenan. The compounds are administered through the tail vein, dissolved in DMSO and saline (1 mL/Kg), 10 minutes before the injection of carrageenan. At the same time, 5 mL of water are administered by the oral route in order to facilitate hydration and subsequent inflammatory reaction. The percentages of inhibition of the different treatments tested are calculated by comparing the area under the curve obtained for the treated animals versus the one obtained for the control group. Said areas are obtained by integration from a graphical representation of paw volume versus time.
The results obtained with representative compounds of the present invention are shown in the following table, where the % of inhibition of inflammation at a dose of 3 mg/kg i.v. of test compound are reported.

[2] = tested on: carrageenan-induced hyperalgesia; experiment: Rat carrageenan-induced hyperalgesia test; type: in vivo; details: male Sprague Dawley rats, 3 mg/Kg intravenous, especially at 120 min after administration
Method: Test 3.—Rat Carrageenan-Induced Hyperalgesia Test
Male Sprague Dawley rats, randomly distributed into the different groups of treatment, are used. Inflammation is induced by injection of a carrageenan suspension (0.75 mg per paw in 0.05 mL of saline) into the animals' right hind foot pad. One hour 45 min later the test compounds are administered by intravenous route. Two hours after carrageenan injection, hyperalgesia is induced at different times in both hindpaws by using a heat source. At each time, the time of latency till the withdrawal of the paw from the heat source is determined for the control group (vehicle) and the treatment groups, and the result is expressed as the increase of the latency time of the inflammed paw of the treated group versus the control group.

Compound	% inhibition of inflammation (paw volume AUC vs control) [1] [%]	analgesic activity (increase of latency time of the inflamed paw vs control) [2]
COc1ccc(-c2c(Cl)ncn2-c2ccc(S(=O)(=O)NP(=O)(O)O)cc2)cc1F [Example 6, N-[4-[4-Chloro-5-(3-fluoro-4-methoxyphenyl)imidazol-1-yl]phenylsulfonyl]phosphoramidic Acid]	34.8	significant analgesic activity
Diethyl N-[4-[4-chloro-5-(3-fluoro methoxyphenyl)imidazol-1-yl]phenylsulfonyl]phosphoramidate [Example 1]	20.7	
CCOP(=O)([O-])NS(=O)(=O)c1ccc(-n2cnc(Cl)c2-c2ccc(OC)c(F)c2)cc1.[Na+] [Example 4, Ethyl N-[4-[4-chloro-5-(3-fluoro-4-methoxyphenyl)imidazol-1-*yl]phenylsulfonyl]phosphoramidate Sodium Salt]	23.3	
